Test results: US20020099206A1, “Cephalosporin crystals and process for their preparation” (priority 1997, published 2002)

Test: stability of Compound (1a) under crystallization conditions (Comparative Test Examples 1 and 2)
Format: physicochemical
Method: Subsequently, stability of Compound (1a) under crystallization conditions was tested. The results are shown in the following Comparative Test Examples 1 and 2.
200 mg of oily 7-phenylacetamido-3-chloromethyl-cephem-4-carboxylic acid p-methoxybenzyl ester was dissolved in 0.2 ml of dimethylformamide. The solution was pored into 1 ml of methanol precooled to 3° C. to precipitate crystals. The mixture was stirred at 3 to 5° C. for 20 hours. Then, an ethyl acetate/water mixture was added to dissolve the crystals, and the solution was subjected to extraction. The organic layer was dried over sodium sulfate. The resulting solution was filtered, and the filtrate was concentrated under reduced pressure. The concentrate was purified by silica gel chromatography (Wako gel C-200, benzene/ethyl acetate=4/1), giving 197 mg of oily 7-phenylacetamido-3-chloromethyl-cephem-4-carboxylic-acid-p-methoxybenzyl ester (yield: 99%).
200 mg of oily 7-phenylacetamido-3-chloromethyl-cephem-4-carboxylic acid p-methoxybenzyl ester was dissolved in 0.2 ml of dimethylformamide. The solution was pored into 1 ml of methanol to precipitate crystals. The mixture was stirred at 30 to 35° C. for 20 hours. Then, an ethyl acetate/water mixture was added to dissolve the crystals, and the solution was subjected to extraction. The organic layer was dried over sodium sulfate. The resulting solution was filtered, and the filtrate was concentrated under reduced pressure.
For example, thin-layer chromatography of the obtained product (conditions: Merk Pre-Coated TLC Plates SILICA GEL 60F254 (Merk); benzene/ethyl acetate=4/1) developed color in zones corresponding to 7-phenylacetamide-3-chloromethyl-cephem-4-carboxylic acid p-methoxybenzyl ester (Compound (1a)) (Rf=0.46), 7-phenylacetamide-3-methoxymethyl-cephem-4-carboxylic acid p-methoxybenzyl ester (Compound A) (Rf=0.33) and decomposition product of Compound (1a) (Rf≈0, in the vicinity of the placing point). […]

[1] = dimethylformamide solution poured into uncooled methanol, stirred at 30 to 35° C. for 20 hours

In the case of `COc1ccc(COC(=O)C2=C(CCl)CS[C@@H]3C(NC(=O)Cc4ccccc4)C(=O)N23)cc1` (stereo partly drawn) [Compound (1a), 7-phenylacetamido-3-chloromethyl-cephem-4-carboxylic acid p-methoxybenzyl ester], the “7-phenylacetamido-3-chloromethyl-cephem-4-carboxylic acid p-methoxybenzyl ester recovered (yield)” value (dimethylformamide solution poured into methanol precooled to 3° C., stirred at 3 to 5° C. for 20 hours) is reported as 99%, the “Compound (1a) recovered (yield)” value [1] is reported as 71% and the “highly polar component Compound A formed (yield)” value [1] is reported as 9%.
